Data as given in patent publication US9205086B2, “Cancer therapy using a combination of a Hsp90 inhibitory compounds and a EGFR inhibitor” (Synta Pharmaceuticals Corp., priority 2010, dated 2015).
Entries after “also recorded” stand apart in the source; their conditions may differ. Where a name gives a salt, the structure may show the parent alone. Each block holds one compound with its values, some of them ahead of it.

Legend:
[1] = system: human NSCLC cell line HCC827; assay: SCID mouse xenograft, tumor growth (% T/C); format: in vivo; conditions: for % T/C value: day 34
Experimental: FBS was obtained from ATCC and all other reagents were obtained from Invitrogen Corp. (Carlsbad, Calif., USA). Cells that had been cryopreserved in liquid nitrogen were rapidly thawed at 37° C. and transferred to a tissue culture flask containing growth media and then incubated at 37° C. in a 5% CO2 incubator. […] Cultures were passaged by washing with 10 mL of room temperature phosphate buffered saline (PBS) and then disassociating cells by adding 5 mL 1× trypsin-EDTA and incubating at 37° C. until the cells detached from the surface of the flask. To inactivate the trypsin, 5 mL of growth media was added and then the contents of the flask were centrifuged to pellet the cells. The supernatant was aspirated and the cell pellet was resuspended in 10 mL of growth media and the cell number determined using a hemocytometer. Cells were seeded into 175 cm^2 flasks containing 50 mL of growth media and incubated at 37° C. in a 5% CO2 incubator.

[2] = In vivo pharmacokinetic (drug-drug interaction) study in SCID mice, plasma by HPLC; parameters: species or system mouse; conditions: for AUCINF / T½ / Cmax: plasma; for Cmax: female, CB17/Icr-Prkdc^scid/Crl (SCID), mouse
From the text: Six to eight week old, female CB17/Icr-Prkdc^scid/Crl (SCID) mice were obtained from Charles River Laboratories (Wilmington, Mass., USA). Animals were housed 4-5/cage in micro-isolators, with a 12 hr/12 hr light/dark cycle, acclimated for at least 1 week prior to use and fed normal laboratory chow ad libitum.

JAK2 mutant JAK2V617F = JAK2 mutant JAK2V617F (Homo sapiens, UniProt O60674, V617F); conditions: cited from earlier work
Sequence of JAK2 mutant JAK2V617F (O60674 whole entry V617F): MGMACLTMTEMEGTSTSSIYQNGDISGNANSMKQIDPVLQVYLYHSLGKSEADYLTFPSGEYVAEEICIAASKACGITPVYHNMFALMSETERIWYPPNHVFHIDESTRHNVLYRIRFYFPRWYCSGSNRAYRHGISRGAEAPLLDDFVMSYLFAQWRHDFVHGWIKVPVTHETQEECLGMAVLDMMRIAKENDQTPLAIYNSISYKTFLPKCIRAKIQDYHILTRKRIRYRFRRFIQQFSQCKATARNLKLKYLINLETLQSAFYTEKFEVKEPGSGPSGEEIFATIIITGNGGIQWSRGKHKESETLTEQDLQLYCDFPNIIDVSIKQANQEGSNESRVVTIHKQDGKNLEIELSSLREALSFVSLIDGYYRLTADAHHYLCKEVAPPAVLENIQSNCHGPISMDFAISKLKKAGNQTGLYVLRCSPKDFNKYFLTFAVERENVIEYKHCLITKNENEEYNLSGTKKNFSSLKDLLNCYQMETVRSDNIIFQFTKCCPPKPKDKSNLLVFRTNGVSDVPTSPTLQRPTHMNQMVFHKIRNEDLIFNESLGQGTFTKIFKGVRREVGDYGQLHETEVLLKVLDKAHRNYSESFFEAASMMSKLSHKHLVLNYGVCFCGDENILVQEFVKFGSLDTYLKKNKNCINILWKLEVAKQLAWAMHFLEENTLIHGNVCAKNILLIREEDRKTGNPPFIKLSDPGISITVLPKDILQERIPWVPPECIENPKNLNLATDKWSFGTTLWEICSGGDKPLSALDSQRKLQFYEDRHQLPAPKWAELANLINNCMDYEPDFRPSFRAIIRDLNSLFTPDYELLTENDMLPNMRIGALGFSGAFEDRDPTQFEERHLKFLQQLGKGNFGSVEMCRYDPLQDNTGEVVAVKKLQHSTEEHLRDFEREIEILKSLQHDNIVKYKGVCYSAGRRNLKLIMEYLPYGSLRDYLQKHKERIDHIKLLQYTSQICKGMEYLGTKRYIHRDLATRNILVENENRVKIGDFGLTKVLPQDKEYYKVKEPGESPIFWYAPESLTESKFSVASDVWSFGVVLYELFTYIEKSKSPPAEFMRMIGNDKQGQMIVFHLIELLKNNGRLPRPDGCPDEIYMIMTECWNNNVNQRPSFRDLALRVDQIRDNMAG

[3] = system: RERF-LC-AI^IVP human lung tumor cells; assay: Nude mouse xenograft, tumor growth; format: in vivo; conditions: 5 times per week, 15 doses
Experimental: The human squamous non-small cell lung cancer cell line, RERF-LC-AI (RCB0444; S. Kyoizumi, et al., Cancer. Res. 45:3274-3281, 1985), was obtained from the Riken Cell Bank (Tsukuba, Ibaraki, Japan). The cell line was cultured in growth media prepared from 50% Dulbecco's Modified Eagle Medium (high glucose), 50% RPMI Media 1640, 10% fetal bovine serum (FBS), 1% 100× L-glutamine, 1% 100× penicillin-streptomycin, 1% 100× sodium pyruvate and 1% 100×MEM non-essential amino acids. FBS was obtained from American Type Culture Collection (Manassas, Va., USA) and all other reagents were obtained from Invitrogen Corp. (Carlsbad, Calif., USA). Approximately 4-5×10(6) cells that had been cryopreserved in liquid nitrogen were rapidly thawed at 37° C. and transferred to a 175 cm^2 tissue culture flask containing 50 ml of growth media and then incubated at 37° C. in a 5% CO2 incubator.
The growth media was replaced every 2-3 days until the flask became 90% confluent, typically in 5-7 days. […] The supernatant was aspirated and the cell pellet was resuspended in 10 ml of growth media and the cell number determined using a hemocytometer. […]
Studies were conducted on animals between 8 and 12 weeks of age at implantation. […] Tumor volumes (V) were calculated by caliper measurement of the width (W), length (L) and thickness (T) of tumors using the following formula: V=0.5236×(L×W×T). […]

[4] = Body weight change in nude mouse xenograft study; format: in vivo; conditions: 200 mg/kg body weight i.p., 5 times per week, 15 doses, tumor-bearing nude mice
Experimental: The Hsp90 inhibitor, 17-allylamino-17-demethoxygeldanamycin (17-AAG), was employed as a positive control (Albany Molecular Research, Albany, N.Y., USA). […] Animals were intraperitoneally (i.p.) injected with this solution at 10 ml per kg body weight on a schedule of 5 days per week (Monday, Tuesday, Wednesday, Thursday and Friday, with no dosing on Saturday and Sunday) for a total of 15 doses.

[5] = 50 mg/kg Compound 1 plus 25 mg/kg erlotinib HCl, SCID mice
[6] = analyte Compound 1, Compound 1 50 mg/kg + erlotinib HCl 25 mg/kg, single dose
[7] = analyte Compound 1, Compound 1 50 mg/kg alone, single i.v. dose
[8] = analyte erlotinib HCl, erlotinib HCl 25 mg/kg + Compound 1 50 mg/kg, single dose
[9] = analyte erlotinib HCl, erlotinib HCl 25 mg/kg alone, single dose

AUCINF [2, 6]: 36.0 μMXHR
T½ [2, 6]: 4.5 h
AUCINF [2, 7]: 38.5 μMXHR
T½ [2, 7]: 4.7 h
Cmax ([2]; iv, 50 mg/kg, analyte Compound 1, Compound 1 50 mg/kg + erlotinib HCl 25 mg/kg, single dose): 93.4 µM
Cmax ([2]; iv, 50 mg/kg, analyte Compound 1, Compound 1 50 mg/kg alone, single i.v. dose): 118 µM
Compound: CC(C)c1cc(-c2nnc(O)n2-c2ccc3c(ccn3C)c2)c(O)cc1O [Compound 1, 3-(2,4-DIHYDROXY-5- ISOPROPYL-PHENYL)-4-(1- METHYL-INDOL-5-YL)-5- HYDROXY-[1,2,4]TRIAZOLE]
HCC827 tumor growth in SCID mice ([1]; Compound 1 50 mg/kg i.v. once per week, 3 doses, 50 mg/kg): moderately inhibited HCC827 tumor growth
% T/C value ([1]; Compound 1 50 mg/kg i.v. once per week): 15%
effect of erlotinib HCl on plasma half-life, Cmax and total plasma exposure (AUCinf) of Compound 1 [2, 5]: no significant effect; also recorded: did not affect

effect of Compound 1 on plasma half-life, Cmax and total plasma exposure (AUCinf) of erlotinib HCl [2, 5]: little or no effect
effect of Compound 1 on plasma half-life, Cmax and total plasma exposure (AUCinf) of erlotinib HCl ([2]; 50 mg/kg Compound 1 plus 25 mg/kg erlotinib HCl, SCID mice, listed as erlotinib): little effect
AUCINF [2, 8]: 39.0 μMXHR
T½ [2, 8]: 2.8 h
AUCINF [2, 9]: 28.1 μMXHR
T½ [2, 9]: 1.7 h
increase in total plasma exposure of erlotinib HCl ([2]; combination with Compound 1 versus erlotinib HCl alone): 39%
Cmax ([2]; intravenous, 25 mg/kg, analyte erlotinib HCl, erlotinib HCl 25 mg/kg + Compound 1 50 mg/kg, single dose): 4.94 µM
Cmax ([2]; intravenous, 25 mg/kg, analyte erlotinib HCl, erlotinib HCl 25 mg/kg alone, single dose): 4.11 µM
Compound: C#Cc1cccc(Nc2ncnc3cc(OCCOC)c(OCCOC)cc23)c1 [erlotinib HCl]
% T/C value ([1]; erlotinib HCl 25 mg/kg p.o. once per week): 23%
inhibition of JAK2V617F (JAK2 mutant JAK2V617F): potently inhibits

Compound: C=CCNC1=C2C[C@@H](C)C[C@H](OC)[C@H](O)[C@@H](C)/C=C(\C)[C@H](OC(N)=O)[C@@H](OC)/C=C\C=C(/C)C(=O)NC(=CC1=O)C2=O [Compound 17-AAG, 17-allylamino-17-demethoxygeldanamycin, reference compound]
growth rate of RERF-LC-AI^IVP human lung tumor cells in nude mice ([3]; 75 mg/kg body weight i.p.): inhibited tumor growth; also recorded: decreased the growth rate

Compound: CCc1cc(-c2nnc(S)n2-c2ccc(OC)c3c2ccn3C(C)C)c(O)cc1O [Compound 26, 3-(2,4-DIHYDROXY-5-ETHYL- PHENYL)-4-(1-ISOPROPYL-7- METHOXY-INDOL-4-YL)-5- MERCAPTO[1,2,4]TRIAZOLE]
growth rate of RERF-LC-AI^IVP human lung tumor cells in nude mice ([3]; 200 mg/kg body weight i.p.): inhibited tumor growth; also recorded: decreased the growth rate
overt toxicity (effect on body weights) [4]: not associated with overt toxicity; also recorded: not overtly toxic
